Data set [1] concerns the target T1, Solute carrier family 22 member 2 (Homo sapiens, UniProt O15244).
T1 sequence (O15244 whole entry): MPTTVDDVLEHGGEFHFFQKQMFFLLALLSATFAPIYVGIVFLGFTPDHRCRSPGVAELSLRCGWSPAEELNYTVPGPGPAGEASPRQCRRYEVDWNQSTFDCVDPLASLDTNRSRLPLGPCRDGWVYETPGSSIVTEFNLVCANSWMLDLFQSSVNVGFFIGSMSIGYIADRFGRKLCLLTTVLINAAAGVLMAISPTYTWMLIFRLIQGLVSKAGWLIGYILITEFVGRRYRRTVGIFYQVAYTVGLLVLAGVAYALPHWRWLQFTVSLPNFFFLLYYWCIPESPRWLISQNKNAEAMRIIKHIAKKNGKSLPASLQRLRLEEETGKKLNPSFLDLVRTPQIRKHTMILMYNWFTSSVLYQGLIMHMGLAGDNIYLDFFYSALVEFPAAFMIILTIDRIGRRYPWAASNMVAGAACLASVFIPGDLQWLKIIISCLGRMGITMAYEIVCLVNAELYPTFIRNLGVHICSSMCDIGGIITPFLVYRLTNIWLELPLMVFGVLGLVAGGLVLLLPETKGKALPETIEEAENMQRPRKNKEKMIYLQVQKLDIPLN
Kind of data set: (§1) TP_TRANSPORTER: uptake in OCT2-expressing 293 cells. It counts as functional, cell-based. As to conditions: hek293.

The target of data set [2] is T2, Solute carrier family 22 member 2 (Rattus norvegicus, UniProt Q9R0W2).
T2 sequence (Q9R0W2 whole entry): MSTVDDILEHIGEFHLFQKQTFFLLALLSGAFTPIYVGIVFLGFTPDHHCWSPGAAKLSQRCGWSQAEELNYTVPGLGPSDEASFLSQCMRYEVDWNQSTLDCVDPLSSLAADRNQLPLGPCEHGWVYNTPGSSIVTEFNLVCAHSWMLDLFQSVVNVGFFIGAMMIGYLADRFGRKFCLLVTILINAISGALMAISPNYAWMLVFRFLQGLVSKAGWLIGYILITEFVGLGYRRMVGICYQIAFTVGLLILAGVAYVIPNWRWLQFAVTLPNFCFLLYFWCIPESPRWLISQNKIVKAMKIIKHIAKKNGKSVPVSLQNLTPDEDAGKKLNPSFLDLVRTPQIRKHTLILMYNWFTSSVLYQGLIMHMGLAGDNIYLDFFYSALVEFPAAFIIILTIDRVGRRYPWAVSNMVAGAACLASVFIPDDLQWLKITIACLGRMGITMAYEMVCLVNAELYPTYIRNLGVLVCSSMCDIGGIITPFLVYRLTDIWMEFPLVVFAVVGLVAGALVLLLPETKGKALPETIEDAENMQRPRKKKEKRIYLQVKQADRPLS
The data set is described as §1. It counts as functional, cell-based. The following applies: human, hek293.

Data set [3] addresses T3, Solute carrier family 22 member 3 (Rattus norvegicus, UniProt O88446).
T3 sequence (O88446 whole entry): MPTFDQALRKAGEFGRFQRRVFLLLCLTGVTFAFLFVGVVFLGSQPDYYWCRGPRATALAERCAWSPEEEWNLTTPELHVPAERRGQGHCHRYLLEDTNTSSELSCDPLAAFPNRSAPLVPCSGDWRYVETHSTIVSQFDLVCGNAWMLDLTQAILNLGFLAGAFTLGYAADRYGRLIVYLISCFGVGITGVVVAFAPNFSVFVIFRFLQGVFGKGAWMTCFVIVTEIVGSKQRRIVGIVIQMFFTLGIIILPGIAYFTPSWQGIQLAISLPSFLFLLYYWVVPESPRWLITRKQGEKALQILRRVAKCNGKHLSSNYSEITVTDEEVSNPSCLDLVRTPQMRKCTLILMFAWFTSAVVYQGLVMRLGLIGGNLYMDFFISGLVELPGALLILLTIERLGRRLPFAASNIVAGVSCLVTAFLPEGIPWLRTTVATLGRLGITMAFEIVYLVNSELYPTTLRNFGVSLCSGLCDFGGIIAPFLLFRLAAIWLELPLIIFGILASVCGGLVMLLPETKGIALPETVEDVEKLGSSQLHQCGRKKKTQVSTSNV
Kind of data set: (§2) TP_TRANSPORTER: uptake in OCT3-expressing 293 cells. Type of data set: functional, cell-based. The following applies: human, hek293.

Data set [4] deals with T4, Solute carrier family 22 member 1 (Homo sapiens, UniProt O15245).
T4 sequence (O15245 whole entry): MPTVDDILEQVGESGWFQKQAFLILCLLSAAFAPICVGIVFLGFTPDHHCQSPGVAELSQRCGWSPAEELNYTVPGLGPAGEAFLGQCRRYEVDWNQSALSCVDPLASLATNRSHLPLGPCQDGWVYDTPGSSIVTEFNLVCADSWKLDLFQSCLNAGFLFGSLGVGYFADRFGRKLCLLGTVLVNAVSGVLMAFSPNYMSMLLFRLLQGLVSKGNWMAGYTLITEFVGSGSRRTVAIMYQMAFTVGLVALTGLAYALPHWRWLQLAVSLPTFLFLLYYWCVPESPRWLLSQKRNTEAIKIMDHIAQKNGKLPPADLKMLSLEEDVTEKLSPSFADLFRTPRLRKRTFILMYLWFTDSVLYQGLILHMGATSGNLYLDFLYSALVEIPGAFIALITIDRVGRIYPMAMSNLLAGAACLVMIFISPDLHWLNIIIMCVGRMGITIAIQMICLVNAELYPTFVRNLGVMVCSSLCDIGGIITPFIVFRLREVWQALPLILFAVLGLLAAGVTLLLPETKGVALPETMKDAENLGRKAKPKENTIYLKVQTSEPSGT
Kind of data set: (§3) TP_TRANSPORTER: uptake in OCT1-expressing 293 cells. It counts as functional, cell-based. The following applies: hek293.

Data set [5] deals with T5, Solute carrier family 22 member 1 (Rattus norvegicus, UniProt Q63089).
T5 sequence (Q63089 whole entry): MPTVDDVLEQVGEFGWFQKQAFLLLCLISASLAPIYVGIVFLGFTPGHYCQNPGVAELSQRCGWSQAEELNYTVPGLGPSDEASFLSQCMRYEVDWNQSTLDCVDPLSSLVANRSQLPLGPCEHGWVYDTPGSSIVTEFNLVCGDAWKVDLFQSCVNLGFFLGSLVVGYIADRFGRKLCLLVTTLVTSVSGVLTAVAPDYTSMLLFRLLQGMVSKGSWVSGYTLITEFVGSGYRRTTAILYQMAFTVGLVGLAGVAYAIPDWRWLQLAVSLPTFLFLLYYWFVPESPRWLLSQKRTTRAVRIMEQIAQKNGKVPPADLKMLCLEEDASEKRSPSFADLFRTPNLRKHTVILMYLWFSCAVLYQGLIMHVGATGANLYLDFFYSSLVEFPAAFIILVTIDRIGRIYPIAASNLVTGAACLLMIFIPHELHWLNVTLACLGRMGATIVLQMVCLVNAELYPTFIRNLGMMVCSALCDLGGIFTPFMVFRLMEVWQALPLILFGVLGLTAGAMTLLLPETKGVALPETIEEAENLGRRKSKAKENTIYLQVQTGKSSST
The data set is described as §3. Type of data set: functional, cell-based. As to conditions: human, hek293.

The target in data set [6] is T4, Solute carrier family 22 member 1. Kind of data set: (§4) TP_TRANSPORTER: inhibition of uptake of 0.1 uM MPP+ in OCT1-expressing 293 cells. It counts as functional, cell-based, HEK293.
Data set [7] addresses T5, Solute carrier family 22 member 1. Described as §4. Type of data set: functional, cell-based, HEK293.
Substrate in data set [8]: N=C(N)NCCCCN
Described as §2. Type of data set: functional, cell-based, HEK293.

Substrate in data set [9]: N=C(N)NCCCCN
The data set is described as §1. It counts as functional, cell-based, HEK293.

Take `C[n+]1ccc(-c2ccccc2)cc1`: the Activity was 7.8 µM in [1]; “substrate []” in data set [2]; “substrate []” in data set [3]; 32 µM in [4]; “substrate []” in data set [5].
A word on the Ki: it is the equilibrium dissociation constant of an inhibitor or competing ligand from its target. Low values mean higher affinity, high ones lower affinity. Consider `N=C(N)NCCCCN` [AGMATINE], for which the Activity entry in data set [4] and in data set [5] was “substrate []” each time. Moreover, the results for the Ki in data set [6] and in data set [7] were 24 mM and 8.6 mM, respectively.

B1: Solute carrier family 22 member 3 (Homo sapiens) (protein)
chain: MPSFDEALQRVGEFGRFQRRVFLLLCLTGVTFAFLFVGVVFLGTQPDHYWCRGPSAAALAERCGWSPEEEWNRTAPASRGPEPPERRGRCQRYLLEAANDSASATSALSCADPLAAFPNRSAPLVPCRGGWRYAQAHSTIVSEFDLVCVNAWMLDLTQAILNLGFLTGAFTLGYAADRYGRIVIYLLSCLGVGVTGVVVAFAPNFPVFVIFRFLQGVFGKGTWMTCYVIVTEIVGSKQRRIVGIVIQMFFTLGIIILPGIAYFIPNWQGIQLAITLPSFLFLLYYWVVPESPRWLITRKKGDKALQILRRIAKCNGKYLSSNYSEITVTDEEVSNPSFLDLVRTPQMRKCTLILMFAWFTSAVVYQGLVMRLGIIGGNLYIDFFISGVVELPGALLILLTIERLGRRLPFAASNIVAGVACLVTAFLPEGIAWLRTTVATLGRLGITMAFEIVYLVNSELYPTTLRNFGVSLCSGLCDFGGIIAPFLLFRLAAVWLELPLIIFGILASICGGLVMLLPETKGIALPETVDDVEKLGSPHSCKCGRNKKTPVSRSHL
Usually Km stands for the concentration of substrate that gives half-maximal velocity. Consider B1, for which the Michaelis-Menten constant (Km) in [8] was determined as 2500 µM.

B2: Solute carrier family 22 member 2 (Rattus norvegicus) (protein)
chain: MSTVDDILEHIGEFHLFQKQTFFLLALLSGAFTPIYVGIVFLGFTPDHHCWSPGAAKLSQRCGWSQAEELNYTVPGLGPSDEASFLSQCMRYEVDWNQSTLDCVDPLSSLAADRNQLPLGPCEHGWVYNTPGSSIVTEFNLVCAHSWMLDLFQSVVNVGFFIGAMMIGYLADRFGRKFCLLVTILINAISGALMAISPNYAWMLVFRFLQGLVSKAGWLIGYILITEFVGLGYRRMVGICYQIAFTVGLLILAGVAYVIPNWRWLQFAVTLPNFCFLLYFWCIPESPRWLISQNKIVKAMKIIKHIAKKNGKSVPVSLQNLTPDEDAGKKLNPSFLDLVRTPQIRKHTLILMYNWFTSSVLYQGLIMHMGLAGDNIYLDFFYSALVEFPAAFIIILTIDRVGRRYPWAVSNMVAGAACLASVFIPDDLQWLKITIACLGRMGITMAYEMVCLVNAELYPTYIRNLGVLVCSSMCDIGGIITPFLVYRLTDIWMEFPLVVFAVVGLVAGALVLLLPETKGKALPETIEDAENMQRPRKKKEKRIYLQVKQADRPLS
On to B2, for which the Km in data set [9] was 950 µM.

B3: Solute carrier family 22 member 2 (Homo sapiens) (protein)
chain: MPTTVDDVLEHGGEFHFFQKQMFFLLALLSATFAPIYVGIVFLGFTPDHRCRSPGVAELSLRCGWSPAEELNYTVPGPGPAGEASPRQCRRYEVDWNQSTFDCVDPLASLDTNRSRLPLGPCRDGWVYETPGSSIVTEFNLVCANSWMLDLFQSSVNVGFFIGSMSIGYIADRFGRKLCLLTTVLINAAAGVLMAISPTYTWMLIFRLIQGLVSKAGWLIGYILITEFVGRRYRRTVGIFYQVAYTVGLLVLAGVAYALPHWRWLQFTVSLPNFFFLLYYWCIPESPRWLISQNKNAEAMRIIKHIAKKNGKSLPASLQRLRLEEETGKKLNPSFLDLVRTPQIRKHTMILMYNWFTSSVLYQGLIMHMGLAGDNIYLDFFYSALVEFPAAFMIILTIDRIGRRYPWAASNMVAGAACLASVFIPGDLQWLKIIISCLGRMGITMAYEIVCLVNAELYPTFIRNLGVHICSSMCDIGGIITPFLVYRLTNIWLELPLMVFGVLGLVAGGLVLLLPETKGKALPETIEEAENMQRPRKNKEKMIYLQVQKLDIPLN
B3: in [9], the Km came out at 1400 µM.

B4: Solute carrier family 22 member 3 (Rattus norvegicus) (protein)
chain: MPTFDQALRKAGEFGRFQRRVFLLLCLTGVTFAFLFVGVVFLGSQPDYYWCRGPRATALAERCAWSPEEEWNLTTPELHVPAERRGQGHCHRYLLEDTNTSSELSCDPLAAFPNRSAPLVPCSGDWRYVETHSTIVSQFDLVCGNAWMLDLTQAILNLGFLAGAFTLGYAADRYGRLIVYLISCFGVGITGVVVAFAPNFSVFVIFRFLQGVFGKGAWMTCFVIVTEIVGSKQRRIVGIVIQMFFTLGIIILPGIAYFTPSWQGIQLAISLPSFLFLLYYWVVPESPRWLITRKQGEKALQILRRVAKCNGKHLSSNYSEITVTDEEVSNPSCLDLVRTPQMRKCTLILMFAWFTSAVVYQGLVMRLGLIGGNLYMDFFISGLVELPGALLILLTIERLGRRLPFAASNIVAGVSCLVTAFLPEGIPWLRTTVATLGRLGITMAFEIVYLVNSELYPTTLRNFGVSLCSGLCDFGGIIAPFLLFRLAAIWLELPLIIFGILASVCGGLVMLLPETKGIALPETVEDVEKLGSSQLHQCGRKKKTQVSTSNV
For B4, the Km in data set [8] was 900 µM.

(Values after ChEMBL document CHEMBL2073758, “Agmatine is efficiently transported by non-neuronal monoamine transporters extraneuronal monoamine transporter (EMT) and organic cation transporter 2 (OCT2)” (J Pharmacol Exp Ther, 2003).)
